Source: ChEMBL document CHEMBL1140238, “Synthesis of selective SRPK-1 inhibitors: novel tricyclic quinoxaline derivatives” (Bioorg Med Chem Lett, 2005)

Target: Hepatocyte growth factor receptor (Homo sapiens) (UniProt P08581)
Experiment: In vitro percent inhibition of Met proto-oncogene tyrosine kinase at 10 uM concentration of compound dissolved in 100% DMSO using 5''-[gamma-33P]-triphosphate
Conditions: not given

Chain of Hepatocyte growth factor receptor (Homo sapiens) (P08581 whole entry): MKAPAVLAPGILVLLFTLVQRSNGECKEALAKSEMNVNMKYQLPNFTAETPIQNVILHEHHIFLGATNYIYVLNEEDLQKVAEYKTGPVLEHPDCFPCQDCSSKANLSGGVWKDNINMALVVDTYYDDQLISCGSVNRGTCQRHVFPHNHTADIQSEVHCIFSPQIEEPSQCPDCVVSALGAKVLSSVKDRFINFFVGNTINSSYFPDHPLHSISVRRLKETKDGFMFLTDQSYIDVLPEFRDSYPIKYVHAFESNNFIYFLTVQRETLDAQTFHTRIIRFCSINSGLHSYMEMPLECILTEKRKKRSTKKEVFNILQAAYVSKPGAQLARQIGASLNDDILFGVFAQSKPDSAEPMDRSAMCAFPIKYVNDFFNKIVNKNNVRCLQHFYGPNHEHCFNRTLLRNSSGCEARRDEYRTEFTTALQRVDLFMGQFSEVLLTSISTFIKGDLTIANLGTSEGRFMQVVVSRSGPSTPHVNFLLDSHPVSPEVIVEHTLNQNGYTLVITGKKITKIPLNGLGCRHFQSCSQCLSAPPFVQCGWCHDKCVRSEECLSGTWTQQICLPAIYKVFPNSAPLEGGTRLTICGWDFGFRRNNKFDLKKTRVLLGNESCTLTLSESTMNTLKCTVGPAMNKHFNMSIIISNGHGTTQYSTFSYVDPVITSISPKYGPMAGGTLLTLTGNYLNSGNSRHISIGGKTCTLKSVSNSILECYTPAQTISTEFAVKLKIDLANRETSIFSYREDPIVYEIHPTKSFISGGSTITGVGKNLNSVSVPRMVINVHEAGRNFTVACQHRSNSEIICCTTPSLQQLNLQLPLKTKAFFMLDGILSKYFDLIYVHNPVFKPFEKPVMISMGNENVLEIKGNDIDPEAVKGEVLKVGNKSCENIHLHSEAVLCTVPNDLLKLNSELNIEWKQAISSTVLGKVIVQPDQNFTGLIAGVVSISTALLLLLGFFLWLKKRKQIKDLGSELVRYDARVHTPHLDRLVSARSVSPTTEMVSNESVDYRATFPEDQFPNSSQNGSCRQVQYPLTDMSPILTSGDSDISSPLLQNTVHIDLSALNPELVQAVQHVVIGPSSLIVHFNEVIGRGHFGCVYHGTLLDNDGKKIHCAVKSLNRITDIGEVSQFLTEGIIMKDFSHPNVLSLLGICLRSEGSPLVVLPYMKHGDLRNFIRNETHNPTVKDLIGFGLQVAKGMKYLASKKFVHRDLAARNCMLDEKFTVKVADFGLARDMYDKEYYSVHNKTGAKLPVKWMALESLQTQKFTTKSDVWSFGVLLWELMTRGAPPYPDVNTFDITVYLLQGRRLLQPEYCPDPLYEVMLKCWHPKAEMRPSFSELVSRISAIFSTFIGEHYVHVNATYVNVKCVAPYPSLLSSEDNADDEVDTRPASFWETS

| Compound | inhibition [%] |
| --- | --- |
| c1csc(-c2nc3cc4ccccc4cc3nc2-c2cccs2)c1 | 43 |
| c1csc(-c2nc3cc4c(cc3nc2-c2cccs2)OCCO4)c1 | 42 |

Test system: not listed separately
Experiment: In vitro percent inhibition of Ribosomal S6 kinase 1 at 10 uM concentration of compound dissolved in 100% DMSO using 5''-[gamma-33P]-triphosphate
Conditions: not given

| Compound | inhibition [%] |
| --- | --- |
| c1csc(-c2nc3cc4ccccc4cc3nc2-c2cccs2)c1 | 6 |
| c1csc(-c2nc3cc4c(cc3nc2-c2cccs2)OCCO4)c1 | 19 |

Target: Rho-associated protein kinase 2 (Homo sapiens) (UniProt O75116)
Experiment: In vitro percent inhibition of Protein kinase ROCK2 at 10 uM concentration of compound dissolved in 100% DMSO using 5''-[gamma-33P]-triphosphate
Conditions: not given

| Compound | inhibition [%] |
| --- | --- |
| c1csc(-c2nc3cc4ccccc4cc3nc2-c2cccs2)c1 | 19 |
| c1csc(-c2nc3cc4c(cc3nc2-c2cccs2)OCCO4)c1 | 41 |

Target: Glycogen synthase kinase-3 beta (Homo sapiens) (UniProt P49841)
Experiment: In vitro percent inhibition of Glycogen synthase kinase 3 beta at 10 uM concentration of compound dissolved in 100% DMSO using 5''-[gamma-33P]-triphosphate
Conditions: not given

| Compound | inhibition [%] |
| --- | --- |
| c1csc(-c2nc3cc4ccccc4cc3nc2-c2cccs2)c1 | 6 |

Test system: not listed separately
Experiment: In vitro percent inhibition of Cyclin-dependent kinase 2-cyclin A at 10 uM concentration of compound dissolved in 100% DMSO using 5''-[gamma-33P]-triphosphate
Conditions: not given

| Compound | inhibition [%] |
| --- | --- |
| c1csc(-c2nc3cc4ccccc4cc3nc2-c2cccs2)c1 | 3 |
| c1csc(-c2nc3cc4c(cc3nc2-c2cccs2)OCCO4)c1 | 1 |

Target: RAC-alpha serine/threonine-protein kinase (Homo sapiens) (UniProt P31749)
Experiment: In vitro percent inhibition of Protein kinase B, alpha at 10 uM concentration of compound dissolved in 100% DMSO using 5''-[gamma-33P]-triphosphate
Conditions: not given

| Compound | inhibition [%] |
| --- | --- |
| c1csc(-c2nc3cc4ccccc4cc3nc2-c2cccs2)c1 | 12 |

Target: Epidermal growth factor receptor (Homo sapiens) (UniProt P00533)
Conditions: 10 uM

Chain of Epidermal growth factor receptor (Homo sapiens) (P00533 whole entry): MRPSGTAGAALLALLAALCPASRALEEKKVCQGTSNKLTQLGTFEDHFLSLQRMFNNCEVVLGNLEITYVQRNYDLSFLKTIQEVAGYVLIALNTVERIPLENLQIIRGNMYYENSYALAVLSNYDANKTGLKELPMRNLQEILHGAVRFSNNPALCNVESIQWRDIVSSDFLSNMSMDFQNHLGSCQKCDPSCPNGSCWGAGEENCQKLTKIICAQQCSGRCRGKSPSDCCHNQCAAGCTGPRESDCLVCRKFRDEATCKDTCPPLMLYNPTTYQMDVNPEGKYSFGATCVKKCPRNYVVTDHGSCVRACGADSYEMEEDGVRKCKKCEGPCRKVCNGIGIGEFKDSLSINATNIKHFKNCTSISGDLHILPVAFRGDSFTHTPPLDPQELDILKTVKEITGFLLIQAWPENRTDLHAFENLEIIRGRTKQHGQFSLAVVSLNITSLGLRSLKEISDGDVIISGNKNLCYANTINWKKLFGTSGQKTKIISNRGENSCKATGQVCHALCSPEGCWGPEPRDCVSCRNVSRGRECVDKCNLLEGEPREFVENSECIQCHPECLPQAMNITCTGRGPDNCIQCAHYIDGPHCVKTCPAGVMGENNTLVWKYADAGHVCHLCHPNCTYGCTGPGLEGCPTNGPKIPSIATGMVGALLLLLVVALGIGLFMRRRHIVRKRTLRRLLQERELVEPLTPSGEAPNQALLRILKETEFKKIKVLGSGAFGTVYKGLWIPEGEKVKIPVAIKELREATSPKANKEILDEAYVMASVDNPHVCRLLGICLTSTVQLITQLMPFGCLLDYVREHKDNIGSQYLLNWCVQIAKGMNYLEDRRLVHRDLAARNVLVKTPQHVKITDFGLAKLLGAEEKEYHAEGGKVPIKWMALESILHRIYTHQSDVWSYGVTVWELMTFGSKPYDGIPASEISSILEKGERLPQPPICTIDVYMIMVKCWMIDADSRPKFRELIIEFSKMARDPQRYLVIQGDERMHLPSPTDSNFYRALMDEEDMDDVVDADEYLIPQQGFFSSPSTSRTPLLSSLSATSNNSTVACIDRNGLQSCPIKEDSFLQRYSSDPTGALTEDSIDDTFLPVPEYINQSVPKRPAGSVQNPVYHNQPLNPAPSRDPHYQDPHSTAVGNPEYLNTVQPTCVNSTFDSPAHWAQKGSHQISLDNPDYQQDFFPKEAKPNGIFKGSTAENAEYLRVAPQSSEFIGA

| Compound | inhibition [%] |
| --- | --- |
| c1csc(-c2nc3cc4ccccc4cc3nc2-c2cccs2)c1 | 6 |
| c1csc(-c2nc3cc4c(cc3nc2-c2cccs2)OCCO4)c1 | 34 |

Target: Casein kinase I isoform alpha (Homo sapiens) (UniProt P48729)
Experiment: In vitro percent inhibition of Casein kinase 1 alpha at 10 uM concentration of compound dissolved in 100% DMSO using 5''-[gamma-33P]-triphosphate
Conditions: not given

| Compound | inhibition [%] |
| --- | --- |
| c1csc(-c2nc3cc4ccccc4cc3nc2-c2cccs2)c1 | 7 |
| c1csc(-c2nc3cc4c(cc3nc2-c2cccs2)OCCO4)c1 | 8 |

Target: Platelet-derived growth factor receptor beta (Homo sapiens) (UniProt P09619)
Experiment: In vitro percent inhibition of Platelet-derived growth factor receptor, beta polypeptide at 10 uM concentration of compound dissolved in 100% DMSO using 5''-[gamma-33P]-triphosphate
Conditions: not given

| Compound | inhibition [%] |
| --- | --- |
| c1csc(-c2nc3cc4ccccc4cc3nc2-c2cccs2)c1 | 15 |
| c1csc(-c2nc3cc4c(cc3nc2-c2cccs2)OCCO4)c1 | 61 |

Target: Insulin receptor (Homo sapiens) (UniProt P06213)
Experiment: In vitro percent inhibition of Insulin receptor at 10 uM concentration of compound dissolved in 100% DMSO using 5''-[gamma-33P]-triphosphate
Conditions: not given

Chain of Insulin receptor (Homo sapiens) (P06213 28-758 limits assumed): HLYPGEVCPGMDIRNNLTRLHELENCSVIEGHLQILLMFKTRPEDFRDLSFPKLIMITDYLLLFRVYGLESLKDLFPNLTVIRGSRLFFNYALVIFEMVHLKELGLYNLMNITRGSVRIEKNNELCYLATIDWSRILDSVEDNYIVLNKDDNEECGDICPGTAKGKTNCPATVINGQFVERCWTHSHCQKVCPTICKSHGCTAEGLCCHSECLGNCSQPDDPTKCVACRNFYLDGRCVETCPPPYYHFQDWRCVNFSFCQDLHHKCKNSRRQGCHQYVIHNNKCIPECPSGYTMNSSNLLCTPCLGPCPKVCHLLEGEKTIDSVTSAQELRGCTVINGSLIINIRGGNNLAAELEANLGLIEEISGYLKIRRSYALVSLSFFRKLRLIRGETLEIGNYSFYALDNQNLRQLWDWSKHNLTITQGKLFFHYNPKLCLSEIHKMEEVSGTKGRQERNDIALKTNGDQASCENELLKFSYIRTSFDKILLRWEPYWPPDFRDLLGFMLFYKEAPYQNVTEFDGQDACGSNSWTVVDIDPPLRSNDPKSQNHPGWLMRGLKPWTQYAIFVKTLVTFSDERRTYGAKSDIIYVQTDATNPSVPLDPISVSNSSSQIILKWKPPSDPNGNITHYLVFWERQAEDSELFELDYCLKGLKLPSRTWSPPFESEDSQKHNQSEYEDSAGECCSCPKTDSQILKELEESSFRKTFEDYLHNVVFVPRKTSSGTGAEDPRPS
Chain of Insulin receptor (Homo sapiens) (P06213 763-1382 limits assumed): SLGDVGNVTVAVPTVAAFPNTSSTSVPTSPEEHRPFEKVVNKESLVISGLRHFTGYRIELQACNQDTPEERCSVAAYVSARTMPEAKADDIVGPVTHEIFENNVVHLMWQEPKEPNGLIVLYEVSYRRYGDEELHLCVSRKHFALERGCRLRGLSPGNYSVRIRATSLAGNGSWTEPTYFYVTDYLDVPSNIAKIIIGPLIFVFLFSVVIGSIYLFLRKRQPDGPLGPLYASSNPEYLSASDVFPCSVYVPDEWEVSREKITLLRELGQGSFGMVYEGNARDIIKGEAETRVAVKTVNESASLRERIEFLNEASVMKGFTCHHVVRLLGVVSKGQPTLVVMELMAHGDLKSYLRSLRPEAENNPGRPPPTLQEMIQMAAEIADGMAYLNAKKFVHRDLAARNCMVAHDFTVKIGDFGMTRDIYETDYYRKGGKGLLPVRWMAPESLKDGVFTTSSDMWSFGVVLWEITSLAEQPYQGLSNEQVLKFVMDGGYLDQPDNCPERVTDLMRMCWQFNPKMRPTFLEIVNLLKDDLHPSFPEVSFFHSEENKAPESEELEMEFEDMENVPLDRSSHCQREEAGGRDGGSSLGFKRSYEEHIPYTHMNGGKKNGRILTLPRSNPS

| Compound | inhibition [%] |
| --- | --- |
| c1csc(-c2nc3cc4ccccc4cc3nc2-c2cccs2)c1 | 55 |
| c1csc(-c2nc3cc4c(cc3nc2-c2cccs2)OCCO4)c1 | 48 |

Target: Mitogen-activated protein kinase 3 (Homo sapiens) (UniProt P27361)
Experiment: In vitro percent inhibition of Mitogen-activated protein kinase 3 at 10 uM concentration of compound dissolved in 100% DMSO using 5''-[gamma-33P]-triphosphate
Conditions: not given

| Compound | inhibition [%] |
| --- | --- |
| c1csc(-c2nc3cc4ccccc4cc3nc2-c2cccs2)c1 | 11 |
| c1csc(-c2nc3cc4c(cc3nc2-c2cccs2)OCCO4)c1 | 31 |

Target: T1, Inhibitor of nuclear factor kappa-B kinase subunit beta (Homo sapiens) (UniProt O14920)
T1 sequence (whole entry): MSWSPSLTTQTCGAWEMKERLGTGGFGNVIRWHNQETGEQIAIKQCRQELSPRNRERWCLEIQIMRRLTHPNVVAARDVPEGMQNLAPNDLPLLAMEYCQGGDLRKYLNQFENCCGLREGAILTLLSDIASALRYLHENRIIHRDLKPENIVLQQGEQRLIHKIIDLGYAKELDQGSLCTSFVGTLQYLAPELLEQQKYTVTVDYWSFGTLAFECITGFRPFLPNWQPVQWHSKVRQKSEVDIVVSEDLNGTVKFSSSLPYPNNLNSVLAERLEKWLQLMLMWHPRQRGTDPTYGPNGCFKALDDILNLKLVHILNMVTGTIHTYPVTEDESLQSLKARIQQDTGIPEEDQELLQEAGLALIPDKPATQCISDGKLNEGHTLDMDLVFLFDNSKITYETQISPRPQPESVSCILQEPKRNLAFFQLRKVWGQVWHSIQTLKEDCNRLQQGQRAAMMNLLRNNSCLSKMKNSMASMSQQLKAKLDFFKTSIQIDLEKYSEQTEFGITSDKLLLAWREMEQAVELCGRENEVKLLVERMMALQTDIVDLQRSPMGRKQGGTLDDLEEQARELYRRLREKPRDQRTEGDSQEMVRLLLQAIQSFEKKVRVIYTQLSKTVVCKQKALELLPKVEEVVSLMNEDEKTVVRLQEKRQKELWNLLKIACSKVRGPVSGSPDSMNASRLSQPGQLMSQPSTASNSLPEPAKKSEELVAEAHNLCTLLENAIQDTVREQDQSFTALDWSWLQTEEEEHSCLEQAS
Experiment: In vitro percent inhibition of I-kappa-B-kinase beta at 10 uM concentration of compound dissolved in 100% DMSO using 5''-[gamma-33P]-triphosphate
Conditions: not given

| Compound | inhibition [%] |
| --- | --- |
| c1csc(-c2nc3cc4ccccc4cc3nc2-c2cccs2)c1 | 6 |
| c1csc(-c2nc3cc4c(cc3nc2-c2cccs2)OCCO4)c1 | 38 |

Target: RAF proto-oncogene serine/threonine-protein kinase (Homo sapiens) (UniProt P04049)
Experiment: In vitro percent inhibition of RAF proto-oncogene serine/threonine-protein kinase at 10 uM concentration of compound dissolved in 100% DMSO using 5''-[gamma-33P]-triphosphate
Conditions: not given

Chain of RAF proto-oncogene serine/threonine-protein kinase (Homo sapiens) (P04049 whole entry): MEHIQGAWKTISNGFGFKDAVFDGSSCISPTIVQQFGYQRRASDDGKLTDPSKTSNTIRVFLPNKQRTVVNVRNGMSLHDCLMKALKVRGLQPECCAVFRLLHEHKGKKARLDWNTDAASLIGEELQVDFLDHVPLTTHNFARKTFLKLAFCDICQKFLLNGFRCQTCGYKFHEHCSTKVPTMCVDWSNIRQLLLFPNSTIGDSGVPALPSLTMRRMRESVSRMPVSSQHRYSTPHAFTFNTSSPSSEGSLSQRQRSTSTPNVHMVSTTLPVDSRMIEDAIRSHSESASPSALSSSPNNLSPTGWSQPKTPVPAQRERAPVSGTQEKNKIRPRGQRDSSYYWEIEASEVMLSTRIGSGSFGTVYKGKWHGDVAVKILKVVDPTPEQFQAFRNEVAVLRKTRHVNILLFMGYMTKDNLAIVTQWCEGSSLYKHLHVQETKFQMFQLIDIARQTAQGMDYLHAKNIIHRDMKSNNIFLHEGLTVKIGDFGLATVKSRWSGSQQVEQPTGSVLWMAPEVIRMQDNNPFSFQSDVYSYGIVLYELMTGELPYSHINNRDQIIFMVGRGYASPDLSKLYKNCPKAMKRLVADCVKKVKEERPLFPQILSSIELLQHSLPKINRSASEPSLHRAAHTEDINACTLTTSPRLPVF

| Compound | inhibition [%] |
| --- | --- |
| c1csc(-c2nc3cc4ccccc4cc3nc2-c2cccs2)c1 | 16 |
| c1csc(-c2nc3cc4c(cc3nc2-c2cccs2)OCCO4)c1 | 4 |

Target: Tyrosine-protein kinase Lck (Homo sapiens) (UniProt P06239)
Experiment: In vitro percent inhibition of p56 Lck tyrosine kinase at 10 uM concentration of compound dissolved in 100% DMSO using 5''-[gamma-33P]-triphosphate
Conditions: not given

| Compound | inhibition [%] |
| --- | --- |
| c1csc(-c2nc3cc4c(cc3nc2-c2cccs2)OCCO4)c1 | 53 |

Test system: not listed separately
Experiment: Partition coefficient (logP)
Format: physicochemical
Conditions: octanol/water

| Compound | logP |
| --- | --- |
| c1csc(-c2nc3cc4ccccc4cc3nc2-c2cccs2)c1 | 5.98 |
| c1csc(-c2nc3cc4c(cc3nc2-c2cccs2)OCCO4)c1 | 5 |

Target: Mitogen-activated protein kinase 8 (Homo sapiens) (UniProt P45983)
Experiment: In vitro percent inhibition of c-Jun N-terminal kinase 1-alpha 1 at 10 uM concentration of compound dissolved in 100% DMSO using 5''-[gamma-33P]-triphosphate
Conditions: not given

Chain of Mitogen-activated protein kinase 8 (Homo sapiens) (P45983 whole entry): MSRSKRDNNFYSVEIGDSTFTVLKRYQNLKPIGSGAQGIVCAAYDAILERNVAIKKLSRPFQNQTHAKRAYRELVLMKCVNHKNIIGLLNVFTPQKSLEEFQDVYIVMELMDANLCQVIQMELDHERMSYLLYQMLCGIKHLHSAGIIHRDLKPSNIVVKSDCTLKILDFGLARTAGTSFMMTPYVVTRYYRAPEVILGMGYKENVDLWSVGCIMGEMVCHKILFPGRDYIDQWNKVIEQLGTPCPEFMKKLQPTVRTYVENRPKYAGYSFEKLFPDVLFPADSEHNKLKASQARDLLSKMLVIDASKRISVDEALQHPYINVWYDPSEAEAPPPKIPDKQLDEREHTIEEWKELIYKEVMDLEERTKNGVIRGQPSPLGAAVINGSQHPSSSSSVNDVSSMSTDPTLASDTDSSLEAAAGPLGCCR

| Compound | inhibition [%] |
| --- | --- |
| c1csc(-c2nc3cc4ccccc4cc3nc2-c2cccs2)c1 | 6 |
| c1csc(-c2nc3cc4c(cc3nc2-c2cccs2)OCCO4)c1 | 24 |

Target: Mast/stem cell growth factor receptor Kit (Homo sapiens) (UniProt P10721)
Experiment: In vitro percent inhibition of v-kit Hardy-Zuckerman 4 feline sarcoma viral oncogene homolog at 10 uM concentration of compound dissolved in 100% DMSO using 5''-[gamma-33P]-triphosphate
Conditions: not given

| Compound | inhibition [%] |
| --- | --- |
| c1csc(-c2nc3cc4ccccc4cc3nc2-c2cccs2)c1 | 8 |
| c1csc(-c2nc3cc4c(cc3nc2-c2cccs2)OCCO4)c1 | 46 |

Target: Ribosomal protein S6 kinase (P70S6K) (Homo sapiens) (UniProt Q9UBS0+P23443)
Experiment: In vitro percent inhibition of Ribosomal protein S6 kinase at 10 uM concentration of compound dissolved in 100% DMSO using 5''-[gamma-33P]-triphosphate
Format: protein-complex assay
Conditions: not given

| Compound | inhibition [%] |
| --- | --- |
| c1csc(-c2nc3cc4ccccc4cc3nc2-c2cccs2)c1 | 8 |

Target: Proto-oncogene tyrosine-protein kinase Src (Homo sapiens) (UniProt P12931)
Experiment: In vitro percent inhibition of c-Src tyrosine kinase at 10 uM concentration of compound dissolved in 100% DMSO using 5''-[gamma-33P]-triphosphate
Conditions: not given

| Compound | inhibition [%] |
| --- | --- |
| c1csc(-c2nc3cc4ccccc4cc3nc2-c2cccs2)c1 | 20 |
| c1csc(-c2nc3cc4c(cc3nc2-c2cccs2)OCCO4)c1 | 84 |

Target: T2, Tyrosine-protein kinase transforming protein Abl (Abelson murine leukemia virus) (UniProt P00521)
T2 sequence (whole entry): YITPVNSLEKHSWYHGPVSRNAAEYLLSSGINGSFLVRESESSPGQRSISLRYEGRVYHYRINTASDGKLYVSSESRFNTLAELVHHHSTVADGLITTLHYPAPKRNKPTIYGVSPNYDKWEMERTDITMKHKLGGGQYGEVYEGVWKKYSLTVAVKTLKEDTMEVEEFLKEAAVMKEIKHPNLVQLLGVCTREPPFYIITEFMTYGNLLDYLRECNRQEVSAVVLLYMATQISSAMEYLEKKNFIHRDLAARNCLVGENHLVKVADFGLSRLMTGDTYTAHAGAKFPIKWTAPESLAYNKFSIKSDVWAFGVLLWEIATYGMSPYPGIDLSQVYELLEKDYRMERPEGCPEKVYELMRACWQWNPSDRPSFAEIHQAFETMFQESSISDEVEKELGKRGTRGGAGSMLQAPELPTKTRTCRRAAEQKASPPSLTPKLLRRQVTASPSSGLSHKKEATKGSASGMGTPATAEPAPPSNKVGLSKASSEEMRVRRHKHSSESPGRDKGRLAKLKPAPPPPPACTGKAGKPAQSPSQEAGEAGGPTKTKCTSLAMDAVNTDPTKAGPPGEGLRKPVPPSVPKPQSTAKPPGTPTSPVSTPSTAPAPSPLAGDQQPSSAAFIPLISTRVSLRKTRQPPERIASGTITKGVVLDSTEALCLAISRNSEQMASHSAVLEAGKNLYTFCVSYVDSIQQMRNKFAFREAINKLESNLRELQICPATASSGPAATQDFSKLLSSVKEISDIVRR
Experiment: In vitro percent inhibition of v-Abl tyrosine kinase at 10 uM concentration of compound dissolved in 100% DMSO using 5''-[gamma-33P]-triphosphate
Conditions: not given

| Compound | inhibition [%] |
| --- | --- |
| c1csc(-c2nc3cc4ccccc4cc3nc2-c2cccs2)c1 | 4 |
| c1csc(-c2nc3cc4c(cc3nc2-c2cccs2)OCCO4)c1 | 11 |
